Reference: the supplement of paper PMC8617591

How the values were obtained:
[1] = tested on: Mycobacterium tuberculosis Erdman (autoluminescent); experiment: AUC25, normalised area under dose response up to IC25 (three-drug combination) (fraction (0-1)); higher = more potent at low dose
Description: (§1)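 DiaMOND equipotent three-drug combination dose responses (10 doses, 1.5- or 2-fold spacing, centred on IC90) against autoluminescent M. tuberculosis Erdman in 8 in vitro models. Read-out is OD600, or luminescence for the intracellular and dormancy models, normalised to untreated wells. Hill-fit Einf, AUC25 and GRinf are potency metrics; FIC50 and FIC90 are total Loewe fractional inhibitory concentrations as log2 (negative = synergy).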

[2] = tested on: Mycobacterium tuberculosis Erdman (autoluminescent); experiment: GRinf, maximum normalised growth rate inhibition (three-drug combination) (unitless (-1 to 1)); higher = less effect (negative = killing)
Description: as §1

[3] = tested on: Mycobacterium tuberculosis Erdman (autoluminescent); experiment: total FIC90 (Loewe) at 90% inhibition, three-drug combination (log2); higher = more antagonistic
Description: as §1

[4] = tested on: Mycobacterium tuberculosis Erdman (autoluminescent); experiment: total FIC50 (Loewe) at 50% inhibition, three-drug combination (log2); higher = more antagonistic
Description: as §1

[5] = tested on: Mycobacterium tuberculosis Erdman (autoluminescent); experiment: Einf, fitted maximum growth inhibition of three-drug combination (fraction); higher = stronger maximal inhibition
Description: as §1

CC[C@@H](CO)NCCN[C@@H](CC)CO [ethambutol] + COc1c(N2C[C@@H]3CCCN[C@@H]3C2)c(F)cc2c(=O)c(C(=O)O)cn(C3CC3)c12 [moxifloxacin] + CO[C@H]1/C=C/O[C@@]2(C)Oc3c(C)c(O)c4c(O)c(c(/C=N/N5CCN(C)CC5)c(O)c4c3C2=O)NC(=O)/C(C)=C\C=C\[C@H](C)[C@H](O)[C@@H](C)[C@@H](O)[C@@H](C)[C@H](OC(C)=O)[C@@H]1C [rifampicin]
Settings	AUC25, [1]	Einf, [5]	GRinf, [2]	total FIC50, [4]	total FIC90, [3]
in vitro model: acidic pH 5.7, time point: constant (~7 days, model-specific)	0.0728	0.842	0.00792	0.27	–
in vitro model: acidic pH 5.7, time point: terminal (~4-5 doublings, model-specific)	0.033	0.969	-0.0608	0.591	-0.139
in vitro model: intracellular J774, time point: constant = terminal	–	0.965	-0.353	–	-1.82

Settings	AUC25, [1]	Einf, [5]	GRinf, [2]	total FIC50, [4]	total FIC90, [3]
in vitro model: butyrate, time point: constant (~7 days, model-specific)	0.0797	0.924	-0.0218	0.419	–
in vitro model: butyrate, time point: terminal (~4-5 doublings, model-specific)	0.0647	0.966	-0.0188	0.334	-0.296
in vitro model: cholesterol 0.05 mM, time point: constant (~7 days, model-specific)	0.104	0.602	0.0718	0.0825	–
in vitro model: cholesterol 0.05 mM, time point: terminal (~4-5 doublings, model-specific)	0.082	0.876	0.198	0.896	–
in vitro model: cholesterol-high 0.2 mM, time point: constant (~7 days, model-specific)	0.0425	0.937	-0.354	1.01	–
in vitro model: cholesterol-high 0.2 mM, time point: terminal (~4-5 doublings, model-specific)	0.0582	1	-0.753	1.13	1.05
in vitro model: dormancy (butyrate + nitrate, low O2), time point: constant (~7 days, model-specific)	0.0959	0.838	0.346	-0.35	–
in vitro model: dormancy (butyrate + nitrate, low O2), time point: terminal (~4-5 doublings, model-specific)	0.0588	0.985	-0.0843	0.268	-0.495
in vitro model: standard 7H9 glycerol, time point: constant = terminal	0.0299	0.861	0.231	0.166	–
in vitro model: valerate, time point: constant (~7 days, model-specific)	0.0379	0.867	0.0142	0.576	–
in vitro model: valerate, time point: terminal (~4-5 doublings, model-specific)	0.0266	0.93	0.0403	0.645	-0.611

CC[C@@H](CO)NCCN[C@@H](CC)CO [ethambutol] + COc1c(N2C[C@@H]3CCCN[C@@H]3C2)c(F)cc2c(=O)c(C(=O)O)cn(C3CC3)c12 [moxifloxacin] + NC(=O)c1cnccn1 [pyrazinamide]
Settings	AUC25, [1]	Einf, [5]	GRinf, [2]	total FIC50, [4]	total FIC90, [3]
in vitro model: acidic pH 5.7, time point: constant (~7 days, model-specific)	0.106	0.781	-0.213	0.429	–
in vitro model: acidic pH 5.7, time point: terminal (~4-5 doublings, model-specific)	0.0713	0.959	-0.294	0.98	0.0827
in vitro model: intracellular J774, time point: constant = terminal	–	0.98	-0.497	–	-0.596

Settings	AUC25, [1]	Einf, [5]	GRinf, [2]	total FIC50, [4]	total FIC90, [3]
in vitro model: butyrate, time point: constant (~7 days, model-specific)	0.108	0.926	0.001	0.345	–
in vitro model: butyrate, time point: terminal (~4-5 doublings, model-specific)	0.0814	0.967	-0.00667	0.477	0.431
in vitro model: cholesterol 0.05 mM, time point: constant (~7 days, model-specific)	0.12	0.683	-0.365	–	–
in vitro model: cholesterol 0.05 mM, time point: terminal (~4-5 doublings, model-specific)	0.135	0.8	-0.21	0.703	–
in vitro model: cholesterol-high 0.2 mM, time point: constant (~7 days, model-specific)	0.0703	0.962	-0.373	1.02	–
in vitro model: cholesterol-high 0.2 mM, time point: terminal (~4-5 doublings, model-specific)	0.0603	1	-0.587	1.29	1.24
in vitro model: dormancy (butyrate + nitrate, low O2), time point: constant (~7 days, model-specific)	0.0861	0.816	0.46	-0.23	–
in vitro model: dormancy (butyrate + nitrate, low O2), time point: terminal (~4-5 doublings, model-specific)	0.0923	0.979	-0.107	0.189	-0.144
in vitro model: standard 7H9 glycerol, time point: constant = terminal	0.0574	0.966	-0.145	–	–
in vitro model: valerate, time point: constant (~7 days, model-specific)	0.0872	0.884	-0.169	0.599	–
in vitro model: valerate, time point: terminal (~4-5 doublings, model-specific)	0.0506	0.945	-0.037	0.696	-0.119

CC[C@@H](CO)NCCN[C@@H](CC)CO [ethambutol] + COc1c(N2C[C@@H]3CCCN[C@@H]3C2)c(F)cc2c(=O)c(C(=O)O)cn(C3CC3)c12 [moxifloxacin] + O=[N+]([O-])c1cn2c(n1)OC[C@@H](OCc1ccc(OC(F)(F)F)cc1)C2 [pretomanid]
Settings	AUC25, [1]	Einf, [5]	GRinf, [2]	total FIC50, [4]	total FIC90, [3]
in vitro model: acidic pH 5.7, time point: constant (~7 days, model-specific)	0.124	0.718	-0.388	0.434	–
in vitro model: acidic pH 5.7, time point: terminal (~4-5 doublings, model-specific)	0.0788	0.939	-0.335	1.03	0.811
in vitro model: intracellular J774, time point: constant = terminal	–	0.999	-0.573	–	-1.12

Settings	AUC25, [1]	Einf, [5]	GRinf, [2]	total FIC50, [4]	total FIC90, [3]
in vitro model: butyrate, time point: constant (~7 days, model-specific)	0.0791	0.94	-0.0315	0.478	–
in vitro model: butyrate, time point: terminal (~4-5 doublings, model-specific)	0.0604	0.968	-0.039	0.42	0.0737
in vitro model: cholesterol 0.05 mM, time point: constant (~7 days, model-specific)	0.106	0.669	-0.247	0.987	–
in vitro model: cholesterol 0.05 mM, time point: terminal (~4-5 doublings, model-specific)	0.116	0.927	-0.457	0.0988	1.38
in vitro model: cholesterol-high 0.2 mM, time point: constant (~7 days, model-specific)	0.0657	0.89	-0.187	0.925	–
in vitro model: cholesterol-high 0.2 mM, time point: terminal (~4-5 doublings, model-specific)	0.0467	1	-0.609	1.12	1.04
in vitro model: dormancy (butyrate + nitrate, low O2), time point: constant (~7 days, model-specific)	0.116	0.835	0.349	0.37	–
in vitro model: dormancy (butyrate + nitrate, low O2), time point: terminal (~4-5 doublings, model-specific)	0.126	0.986	-0.335	-0.414	0.703
in vitro model: standard 7H9 glycerol, time point: constant = terminal	0.0753	0.974	-0.251	0.294	0.564
in vitro model: valerate, time point: constant (~7 days, model-specific)	0.0943	0.862	-0.00882	-0.131	–
in vitro model: valerate, time point: terminal (~4-5 doublings, model-specific)	0.0516	0.929	0.0316	0.26	-0.798
